From ChEMBL document CHEMBL1201862, “PubChem BioAssay data set” (2004)
Calls of active or inactive are those of the source.

Assays:
[1] = molecular target: T1, Corticotropin-releasing factor receptor 2/Corticotropin-releasing factor-binding protein (Homo sapiens, UniProt P24387+Q13324); experiment: activators of CRF receptor 2 with binding protein – uHTS hits, confirmation (AID 602473); assay type: functional; details: read-out: EC50_Mean
T1 sequence (Q13324 whole entry): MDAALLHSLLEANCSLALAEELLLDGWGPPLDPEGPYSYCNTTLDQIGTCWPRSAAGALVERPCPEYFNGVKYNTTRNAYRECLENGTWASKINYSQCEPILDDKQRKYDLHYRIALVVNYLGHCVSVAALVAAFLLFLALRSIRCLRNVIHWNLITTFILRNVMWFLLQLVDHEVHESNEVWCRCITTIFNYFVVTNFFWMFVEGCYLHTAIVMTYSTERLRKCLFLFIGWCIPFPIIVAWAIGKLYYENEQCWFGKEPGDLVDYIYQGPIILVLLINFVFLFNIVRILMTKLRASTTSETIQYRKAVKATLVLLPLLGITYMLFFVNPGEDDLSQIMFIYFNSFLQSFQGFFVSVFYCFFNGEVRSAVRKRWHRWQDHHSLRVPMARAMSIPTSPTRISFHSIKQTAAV
T1 sequence (P24387 whole entry): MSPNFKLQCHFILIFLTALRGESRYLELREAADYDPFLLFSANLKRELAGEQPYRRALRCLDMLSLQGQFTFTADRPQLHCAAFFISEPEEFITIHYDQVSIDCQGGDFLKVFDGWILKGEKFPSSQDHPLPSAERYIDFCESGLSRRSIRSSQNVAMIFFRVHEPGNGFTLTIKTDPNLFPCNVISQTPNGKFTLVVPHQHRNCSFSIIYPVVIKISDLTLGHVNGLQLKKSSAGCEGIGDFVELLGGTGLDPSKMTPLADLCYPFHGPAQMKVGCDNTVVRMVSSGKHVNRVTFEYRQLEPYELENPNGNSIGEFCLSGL

[2] = molecular target: T1, Corticotropin-releasing factor receptor 2/Corticotropin-releasing factor-binding protein; experiment: Dose Response confirmation of uHTS hits for small molecule antagonists of the CRF-binding protein and CRF-R2 receptor complex.; assay type: functional; details: read-out: IC50_Mean
Cytochrome P450 3A4 = Cytochrome P450 3A4 (Homo sapiens, UniProt P08684);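 note: CYP3A4 tested as one member of a cytochrome P450 panel screen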
Cytochrome P450 2C9 = Cytochrome P450 2C9 (Homo sapiens, UniProt P11712)
Cytochrome P450 2D6 = Cytochrome P450 2D6 (Homo sapiens, UniProt P10635);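 note: CYP2D6 member of a cytochrome P450 panel assay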
[3] = Luminescence Cell-Based Dose Confirmation HTS to Identify Inhibitors of Platelet Dense Granule Release. [Related pubchem assays: 1663 (Primary HTS), 1678 (Summary of Project)]; assay type: functional
Cytochrome P450 1A2 = molecular target: T2, Cytochrome P450 1A2 (Homo sapiens, UniProt P05177);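 note: PubChem cytochrome P450 panel assay, CYP1A2 panel member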
T2 sequence (P05177 whole entry): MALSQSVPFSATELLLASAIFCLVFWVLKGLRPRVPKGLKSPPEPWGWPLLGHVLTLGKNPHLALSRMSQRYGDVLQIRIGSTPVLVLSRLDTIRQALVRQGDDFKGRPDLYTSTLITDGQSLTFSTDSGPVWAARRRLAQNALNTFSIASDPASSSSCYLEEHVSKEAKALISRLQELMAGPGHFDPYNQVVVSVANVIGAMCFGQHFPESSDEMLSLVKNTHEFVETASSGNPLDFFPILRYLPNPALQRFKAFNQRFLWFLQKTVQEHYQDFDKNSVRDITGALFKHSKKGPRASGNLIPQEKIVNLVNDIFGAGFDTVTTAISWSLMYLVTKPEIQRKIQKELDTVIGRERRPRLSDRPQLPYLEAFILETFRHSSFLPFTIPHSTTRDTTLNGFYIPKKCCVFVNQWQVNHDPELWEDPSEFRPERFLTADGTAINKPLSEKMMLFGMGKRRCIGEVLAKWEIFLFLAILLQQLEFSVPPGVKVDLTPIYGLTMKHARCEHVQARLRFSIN

[4] = molecular target: Luciferin 4-monooxygenase (Photinus pyralis, UniProt P08659); experiment: firefly luciferase enzyme inhibitors, dose response, biochemical, luminescence (AID 1891)
cells = assay type: functional
H9c2 = experiment: cells; assay type: functional, cell-based; details: Rattus norvegicus, H9c2, Myocardium;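 note: confirmatory concentration-response retest of ultra-high-throughput screening hits for modulation of myocardial damage; cell death induced by hydrogen peroxide oxidative stress; compound pretreatment for 60 min then peroxide exposure for 2 h; potency is for protecting the cells against peroxide damage rather than for killing them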
[5] = inhibitors of intracellular T. cruzi replication, confirmation, NIH3T3 host cells, beta-gal luminescence (AID 2044); assay type: functional, cell-based;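 note: intracellular parasites grown in NIH/3T3 mouse fibroblasts as host cells; luminescent beta-galactosidase reporter signal from transgenic T. cruzi replicating inside host cells; inhibitors lower the luminescence signal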
[6] = cytotoxicity toward NIH3T3 fibroblasts, dose response, counter-screen, cell-based, ATP luminescence, mouse fibroblasts (AID 2010); assay type: functional;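 note: cells exposed to compound for about 90 hours before reading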
[7] = molecular target: T3, Rac GTPase-activating protein 1 (Homo sapiens, UniProt Q9H0H5); experiment: MgcRacGAP GTPase-activating activity inhibitors, confirmation, biochemical, ADP Hunter fluorescence, primary and confirmatory (AID 624330); assay type: functional
T3 sequence (Q9H0H5 whole entry): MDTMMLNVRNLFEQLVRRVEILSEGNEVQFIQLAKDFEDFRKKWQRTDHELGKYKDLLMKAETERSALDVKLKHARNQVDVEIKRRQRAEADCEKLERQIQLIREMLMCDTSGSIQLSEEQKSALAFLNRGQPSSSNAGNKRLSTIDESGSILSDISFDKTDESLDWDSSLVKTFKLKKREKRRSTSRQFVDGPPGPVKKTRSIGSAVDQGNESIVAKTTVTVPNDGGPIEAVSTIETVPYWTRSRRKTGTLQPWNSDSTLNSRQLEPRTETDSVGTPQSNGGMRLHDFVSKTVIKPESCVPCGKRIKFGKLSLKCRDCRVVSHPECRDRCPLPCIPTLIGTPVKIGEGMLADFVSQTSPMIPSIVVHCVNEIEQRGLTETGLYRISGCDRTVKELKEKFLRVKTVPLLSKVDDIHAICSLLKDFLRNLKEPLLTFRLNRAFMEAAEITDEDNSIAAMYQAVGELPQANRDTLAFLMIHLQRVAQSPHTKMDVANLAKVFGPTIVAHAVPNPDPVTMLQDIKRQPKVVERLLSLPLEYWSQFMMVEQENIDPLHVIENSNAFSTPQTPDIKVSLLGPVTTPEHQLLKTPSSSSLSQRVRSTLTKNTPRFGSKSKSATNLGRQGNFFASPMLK

Paired box protein Pax-8 = Paired box protein Pax-8 (Homo sapiens, UniProt Q06710); experiment: inhibitors of PAX8-driven TPO luciferase reporter, dose response, RMG-I cells, cherry-pick (AID 687027); assay type: functional, cell-based;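 note: luciferase reporter driven by Pax8 target thyroperoxidase promoter measured by SteadyGlo luminescence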
[8] = molecular target: FAD-linked sulfhydryl oxidase ALR (Homo sapiens, UniProt P55789); experiment: inhibitors of human ALR sulfhydryl oxidase, dose response, biochemical, H2O2 detection, luminescence, cherry-pick (AID 493248)
Chain of FAD-linked sulfhydryl oxidase ALR (P55789 whole entry): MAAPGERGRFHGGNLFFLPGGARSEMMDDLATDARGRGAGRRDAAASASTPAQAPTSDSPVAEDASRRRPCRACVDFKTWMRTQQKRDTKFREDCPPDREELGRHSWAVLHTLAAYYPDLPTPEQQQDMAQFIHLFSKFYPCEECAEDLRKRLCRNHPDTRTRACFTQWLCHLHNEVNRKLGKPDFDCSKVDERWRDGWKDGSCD

Chain of Luciferin 4-monooxygenase (P08659 whole entry): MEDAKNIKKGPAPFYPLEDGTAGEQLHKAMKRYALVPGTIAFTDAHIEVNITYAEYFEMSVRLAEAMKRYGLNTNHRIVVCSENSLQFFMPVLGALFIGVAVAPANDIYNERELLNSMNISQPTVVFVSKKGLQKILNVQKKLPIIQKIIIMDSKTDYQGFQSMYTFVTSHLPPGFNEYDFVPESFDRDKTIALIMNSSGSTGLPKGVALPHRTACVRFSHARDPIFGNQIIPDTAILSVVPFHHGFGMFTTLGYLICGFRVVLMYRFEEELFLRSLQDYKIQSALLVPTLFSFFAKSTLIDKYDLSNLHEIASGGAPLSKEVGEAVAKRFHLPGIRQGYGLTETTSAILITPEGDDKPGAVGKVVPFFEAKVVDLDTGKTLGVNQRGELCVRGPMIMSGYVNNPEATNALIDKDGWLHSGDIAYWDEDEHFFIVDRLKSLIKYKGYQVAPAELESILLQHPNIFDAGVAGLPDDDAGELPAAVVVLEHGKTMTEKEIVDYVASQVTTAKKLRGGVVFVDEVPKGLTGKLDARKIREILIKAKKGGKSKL
Chain of Paired box protein Pax-8 (Q06710 whole entry): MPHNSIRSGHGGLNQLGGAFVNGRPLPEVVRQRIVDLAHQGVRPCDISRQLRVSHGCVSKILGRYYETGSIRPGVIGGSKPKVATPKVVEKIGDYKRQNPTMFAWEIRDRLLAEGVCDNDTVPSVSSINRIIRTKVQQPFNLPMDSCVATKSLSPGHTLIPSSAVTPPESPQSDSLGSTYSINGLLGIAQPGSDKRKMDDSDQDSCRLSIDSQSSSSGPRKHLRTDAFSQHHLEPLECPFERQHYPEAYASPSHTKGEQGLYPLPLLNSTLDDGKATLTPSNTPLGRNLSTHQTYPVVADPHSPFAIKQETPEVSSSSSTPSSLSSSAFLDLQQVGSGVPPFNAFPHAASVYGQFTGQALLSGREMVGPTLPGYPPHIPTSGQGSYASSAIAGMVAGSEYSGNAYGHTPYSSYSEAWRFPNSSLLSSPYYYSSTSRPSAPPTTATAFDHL
Chain of Cytochrome P450 3A4 (P08684 whole entry): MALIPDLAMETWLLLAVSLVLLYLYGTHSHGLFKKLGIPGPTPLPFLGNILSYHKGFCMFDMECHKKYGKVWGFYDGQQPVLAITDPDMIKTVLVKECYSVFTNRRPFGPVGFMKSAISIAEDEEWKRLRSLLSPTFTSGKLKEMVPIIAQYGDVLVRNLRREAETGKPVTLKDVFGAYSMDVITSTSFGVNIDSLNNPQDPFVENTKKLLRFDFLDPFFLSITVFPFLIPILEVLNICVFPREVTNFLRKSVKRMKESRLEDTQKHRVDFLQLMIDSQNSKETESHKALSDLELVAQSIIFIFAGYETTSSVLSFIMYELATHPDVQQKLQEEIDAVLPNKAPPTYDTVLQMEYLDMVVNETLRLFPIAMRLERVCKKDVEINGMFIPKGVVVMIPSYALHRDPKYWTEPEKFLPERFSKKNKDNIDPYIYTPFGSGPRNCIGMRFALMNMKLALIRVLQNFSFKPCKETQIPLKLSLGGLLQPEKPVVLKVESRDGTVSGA
Chain of Cytochrome P450 2C9 (P11712 whole entry): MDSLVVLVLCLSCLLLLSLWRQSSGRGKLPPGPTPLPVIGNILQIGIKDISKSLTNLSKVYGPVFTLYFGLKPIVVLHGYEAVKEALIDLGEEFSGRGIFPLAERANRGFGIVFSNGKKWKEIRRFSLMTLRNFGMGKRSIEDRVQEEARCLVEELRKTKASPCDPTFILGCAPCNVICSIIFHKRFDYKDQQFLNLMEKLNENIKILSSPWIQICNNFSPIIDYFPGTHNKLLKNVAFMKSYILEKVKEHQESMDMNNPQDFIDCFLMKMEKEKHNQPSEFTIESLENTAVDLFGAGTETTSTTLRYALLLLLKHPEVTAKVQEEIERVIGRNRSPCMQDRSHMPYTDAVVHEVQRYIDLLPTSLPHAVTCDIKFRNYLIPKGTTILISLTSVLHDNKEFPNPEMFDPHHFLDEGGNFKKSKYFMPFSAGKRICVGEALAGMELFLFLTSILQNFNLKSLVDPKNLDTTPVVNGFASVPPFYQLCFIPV
Chain of Cytochrome P450 2D6 (P10635 whole entry): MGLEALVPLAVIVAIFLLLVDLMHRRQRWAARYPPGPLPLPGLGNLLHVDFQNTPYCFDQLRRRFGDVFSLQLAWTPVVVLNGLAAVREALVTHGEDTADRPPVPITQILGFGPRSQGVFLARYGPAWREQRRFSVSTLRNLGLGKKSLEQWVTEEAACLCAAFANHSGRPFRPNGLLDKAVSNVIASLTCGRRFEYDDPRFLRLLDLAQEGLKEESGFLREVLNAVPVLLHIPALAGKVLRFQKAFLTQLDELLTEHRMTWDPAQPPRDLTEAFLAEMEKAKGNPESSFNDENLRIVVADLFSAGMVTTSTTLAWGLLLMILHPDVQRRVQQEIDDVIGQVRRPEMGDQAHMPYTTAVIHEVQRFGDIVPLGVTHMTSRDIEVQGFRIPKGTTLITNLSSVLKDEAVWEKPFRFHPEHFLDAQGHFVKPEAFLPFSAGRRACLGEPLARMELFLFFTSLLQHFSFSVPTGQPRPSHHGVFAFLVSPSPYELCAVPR

O=C(NCN1CCCCC1)c1cnccn1
EC50 [1]: > 53 µM (inactive) | IC50 [2]: > 47.1 µM (inactive)

CC1CCC(NC(=O)c2ccc(CS(=O)(=O)Cc3ccccc3F)o2)CC1 (stereo unspecified)
AC50 (Cytochrome P450 3A4): 14.1 µM (inconclusive) | AC50 (Cytochrome P450 2C9): 17.8 µM (inconclusive) | AC50 (Cytochrome P450 2D6): 35.5 µM (inconclusive) | EC50 [3]: > 112 µM (not active) | AC50 (Cytochrome P450 1A2): 0.251 µM (inconclusive) | EC50 [4]: > 112 µM (not active)

N#C/C(=C\c1c[nH]c2ccccc12)c1nnc2n1CCCCC2
EC50 [3]: > 112 µM (not active) | EC50 [4]: > 112 µM (not active)

Cc1ccc(Oc2nc3ccccn3c(=O)c2/C=C(\C#N)C(=O)NC2CCS(=O)(=O)C2)c(C)c1 (stereo unspecified)
EC50 [3]: 6.03 µM (active) | EC50 [4]: > 112 µM (not active)

CCC(C)c1ccc(OCCn2ccnc2)cc1 (stereo unspecified)
IC50 (cells): 22.6 µM (active)

CCOC(=O)COc1cc([N+](=O)[O-])cc2cccnc12
IC50 (cells): 46.4 µM (active)

N#Cc1ccc(NC(=O)COC(=O)CSc2nnc(-c3ccc(Cl)cc3)o2)cc1
EC50 [1]: > 53 µM (inactive) | IC50 [2]: > 47.1 µM (inactive)

CC(=O)Nc1cccc(NC(=O)CSc2ccc(-c3ccccn3)nn2)c1
IC50 (H9c2): 24.5 µM (active)

CCOC(=O)C(CC)n1cnc2c(nnn2-c2ccc(F)cc2)c1=O (stereo unspecified)
EC50 [3]: > 112 µM (not active) | EC50 [4]: > 112 µM (not active)

COc1cccc(C(=O)CSc2nnc(-c3cc(OC)c(OC)c(OC)c3)o2)c1
IC50 (H9c2): > 79 µM (inactive)

Cc1c(C(=O)NCC2COc3ccccc3O2)oc2ccc(S(=O)(=O)N3CCOCC3)cc12 (stereo unspecified)
IC50 (H9c2): > 79 µM (inactive)

O=c1oc2ccccc2c2c1nc(C(F)(F)F)n2-c1ccccc1
IC50 (cells): 11.4 µM (active)

O=C(c1ccco1)N1CCN(C(=O)c2cc(-c3ccncc3)nc3ccc(Br)cc23)CC1
EC50 [5]: 3.83 µM (active) | EC50 [6]: > 60 µM (not active) | IC50 (H9c2): 7.04 µM (active)

CC12CCC(C(=O)NNc3ccccc3)(C(=O)C1=O)C2(C)C (stereo unspecified)
EC50 [3]: > 112 µM (not active) | EC50 [4]: > 112 µM (not active)

Cc1ccc(C)c(NC(=O)c2cc(S(=O)(=O)N3CCOCC3)cn2C)c1
EC50 [3]: > 112 µM (not active) | EC50 [4]: > 112 µM (not active)

CC(C)(C)C(=O)Nc1cccc(-c2nnc(-c3cccc(NC(=O)C(C)(C)C)c3)o2)c1
IC50 (H9c2): > 79 µM (inactive)

O=C1NC(c2ccc(Cl)c([N+](=O)[O-])c2)Nc2ccccc21 (stereo unspecified)
IC50 (H9c2): 21.9 µM (active)

Cc1cccc(-n2c(SCC(=O)N3CC(=O)Nc4ccccc43)nc3ccccc3c2=O)c1C
EC50 [1]: > 53 µM (inactive) | IC50 [2]: > 47.1 µM (inactive)

COc1ccc(C(=O)COC(=O)CCNS(=O)(=O)c2ccc(NC(C)=O)cc2)c(OC)c1
EC50 [1]: > 53 µM (inactive) | IC50 [2]: > 47.1 µM (inactive)

CCN(CC)C(=O)c1c(C)nc2ccccn12
EC50 [1]: > 53 µM (inactive) | IC50 [2]: > 47.1 µM (inactive)

C=CCn1c(SCC(=O)Nc2c(C)cccc2C)nnc1-c1ccncc1
EC50 [1]: > 53 µM (inactive) | IC50 [2]: > 47.1 µM (inactive)

CCCS(=O)(=O)N1CCC(C(=O)NCCCOC(C)C)CC1
EC50 [1]: > 53 µM (inactive) | IC50 [2]: > 47.1 µM (inactive)

CC(C)(O)C#Cc1ccc(C(=O)Nc2ccc3c(c2)OCO3)s1
IC50 (cells): 5 µM (active)

Cc1cnc(NC(=O)CN2CCN(c3ccccc3F)CC2)s1
IC50 [7]: 150 µM (active)

COC(=O)C1=C2SC(C)C(=O)N2C(N)=C(C#N)C1c1ccc(OC)c(OC)c1 (stereo unspecified)
EC50 [3]: > 112 µM (not active) | EC50 [4]: > 112 µM (not active)

O=C(Oc1cccc2c(O)nccc12)c1ccccc1
IC50 (H9c2): > 79 µM (inactive)

Cc1ccc(N2CC(C(=O)NCc3nnc(O)c4ccccc34)CC2=O)cc1C (stereo unspecified)
IC50 (H9c2): > 79 µM (inactive)

CN(C(=O)CCS(=O)(=O)c1ccc2c(c1)oc(=O)n2C)C1CCCCC1
EC50 [1]: > 53 µM (inactive) | IC50 [2]: > 47.1 µM (inactive)

O=C(C[C@@H]1C/C=C/CC[C@@H](Cc2ccc(F)cc2)C(=O)O[C@@H](c2ccccc2)CNC1=O)NCCO
IC50 (H9c2): 11.4 µM (active)

COc1cccc(COC(=O)CCNC(=O)c2ccc(Cl)cc2)c1OC
IC50 (cells): 25.5 µM (active)

COc1ccccc1N1CCN(C(=O)C(=O)c2cn(CC(=O)N3CCCC3)c3ccccc23)CC1
EC50 [1]: > 53 µM (inactive) | IC50 [2]: > 47.1 µM (inactive)

O=C(CCc1nc(O)c2ccccc2n1)N1CCN(S(=O)(=O)c2ccc(F)cc2)CC1
IC50 (H9c2): > 79 µM (inactive)

CC(=O)c1ccc(NC(=O)C(C)OC(=O)c2ccc(Br)o2)cc1 (stereo unspecified)
EC50 [1]: > 53 µM (inactive) | IC50 [2]: > 47.1 µM (inactive)

CC(C)(C)OC(=O)N1CCCN(C(=O)Nc2cccc(Cl)c2)CC1
EC50 [1]: > 53 µM (inactive) | IC50 [2]: > 47.1 µM (inactive)

Cc1ccc(OCC(=O)Nc2ccc([N+](=O)[O-])cn2)cc1C
EC50 [1]: > 53 µM (inactive) | IC50 [2]: > 47.1 µM (inactive)

Cc1ccccc1/N=C/c1cc2c(cc1[N+](=O)[O-])OCO2
IC50 (H9c2): > 79 µM (inactive)

CN(C)S(=O)(=O)c1ccc(Cl)c(NC(=O)CNC2(C)CCS(=O)(=O)C2)c1 (stereo unspecified)
EC50 [1]: > 53 µM (inactive) | IC50 [2]: > 47.1 µM (inactive)

C[C@@H]1CCCCO[C@@H](CN(C)CC2CCCCC2)[C@@H](C)CN([C@@H](C)CO)C(=O)c2cc(NC(=O)Nc3ccc(C(F)(F)F)cc3)ccc2O1
AC50 (Paired box protein Pax-8): 12 µM (active)

C[C@@H]1CN([C@H](C)CO)C(=O)c2cc(NC(=O)c3ccccc3)ccc2O[C@@H](C)CCCCO[C@H]1CN(C)Cc1ccc(C(F)(F)F)cc1
AC50 (Paired box protein Pax-8): 3.09 µM (active)

CSc1nc(/C=C2\C=Nc3ccccc32)c(O)n1C
AC50 [8]: 4.03 µM (active) | EC50 [3]: 0.812 µM (active) | IC50 [7]: 41 µM (active) | EC50 [4]: 5.32 µM (active)

Cn1c(=O)c2c(nc(OCc3ccc(Cl)cc3Cl)n2Cc2ccc(F)cc2)n(C)c1=O
EC50 [3]: > 112 µM (not active) | EC50 [4]: > 112 µM (not active)
